Reference: ChEMBL document CHEMBL1201862, “PubChem BioAssay data set” (2004)
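Each compound was tested at five concentrations against cells in 96-well plates for 48 hours. The concentration for 50% growth inhibition is given as GI50.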 The source made the active and inactive calls. Cut-off read from the data, not from the text of the source: active = GI50 up to about 1.1 µM and inactive = higher.

How the values were obtained:
Assay in all cases: DTP human tumour cell line panel, 48 h
786-0 = tested on: 786-0
A549 = tested on: A549
ACHN = tested on: ACHN
CCRF-CEM = tested on: CCRF-CEM
COLO 205 = tested on: COLO 205
DLD-1 = tested on: DLD-1
DMS-273 = tested on: DMS-273
HCT-116 = tested on: HCT-116
HCT-15 = tested on: HCT-15
HL-60 = tested on: HL-60
HOP-18 = tested on: HOP-18
HOP-62 = tested on: HOP-62
HOP-92 = tested on: HOP-92
HT-29 = tested on: HT-29
IGROV-1 = tested on: IGROV-1
K562 = tested on: K562
KM12 = tested on: KM12
LOX IMVI = tested on: LOX IMVI
LXFL 529 = tested on: LXFL 529
M14 = tested on: M14
M19-MEL = tested on: M19-MEL
MOLT-4 = tested on: MOLT-4
Malme-3M = tested on: Malme-3M
NCI-H226 = tested on: NCI-H226
NCI-H23 = tested on: NCI-H23
NCI-H460 = tested on: NCI-H460
NCI-H522 = tested on: NCI-H522
OVCAR-4 = tested on: OVCAR-4
OVCAR-5 = tested on: OVCAR-5
OVCAR-8 = tested on: OVCAR-8
RPMI-8226 = tested on: RPMI-8226
RXF 393 = tested on: RXF 393
SF-268 = tested on: SF-268
SF-295 = tested on: SF-295
SF-539 = tested on: SF-539
SK-MEL-28 = tested on: SK-MEL-28
SK-MEL-2 = tested on: SK-MEL-2
SK-MEL-5 = tested on: SK-MEL-5
SK-OV-3 = tested on: SK-OV-3
SN12C = tested on: SN12C
SNB-75 = tested on: SNB-75
SNB-78 = tested on: SNB-78
SR = tested on: SR
SW-620 = tested on: SW-620
TK-10 = tested on: TK-10
U-251 = tested on: U-251
UACC-257 = tested on: UACC-257
UACC-62 = tested on: UACC-62
UO-31 = tested on: UO-31
A498 = tested on: A498
DMS-114 = tested on: DMS-114
EKVX = tested on: EKVX
HCC 2998 = tested on: HCC 2998
KM-20L2 = tested on: KM-20L2
SNB-19 = tested on: SNB-19
XF498 = tested on: XF498

Measured: GI50

N#CC(NNC(=O)Cc1ccccc1)c1ccc([N+](=O)[O-])cc1 (configuration not stated)
> 100 µM: HCT-15
inactive: 786-0 > 100 µM | A549 > 100 µM | ACHN > 100 µM | CCRF-CEM > 100 µM | COLO 205 > 100 µM | DLD-1 > 100 µM | DMS-273 > 100 µM | HCT-116 > 100 µM | HL-60 > 100 µM | HOP-18 82.8 µM | HOP-62 > 100 µM | HOP-92 55.3 µM | HT-29 > 100 µM | IGROV-1 > 100 µM | K562 > 100 µM | KM12 > 100 µM | LOX IMVI > 100 µM | LXFL 529 > 100 µM | M14 > 100 µM | M19-MEL > 100 µM | MOLT-4 > 100 µM | Malme-3M > 100 µM | NCI-H226 > 100 µM | NCI-H23 > 100 µM | NCI-H460 > 100 µM | NCI-H522 > 100 µM | OVCAR-4 > 100 µM | OVCAR-5 > 100 µM | OVCAR-8 > 100 µM | RPMI-8226 > 100 µM | RXF 393 > 100 µM | SF-268 > 100 µM | SF-295 > 100 µM | SF-539 > 100 µM | SK-MEL-28 > 100 µM | SK-MEL-2 > 100 µM | SK-MEL-5 > 100 µM | SK-OV-3 > 100 µM | SN12C > 100 µM | SNB-75 65.6 µM | SNB-78 > 100 µM | SR > 100 µM | SW-620 > 100 µM | TK-10 > 100 µM | U-251 > 100 µM | UACC-257 > 100 µM | UACC-62 > 100 µM | UO-31 > 100 µM

O=C(/C=C/c1ccccc1)CC1OC(=O)c2ccccc21 (configuration not stated)
> 100 µM: HCT-15
inactive: 786-0 > 100 µM | A498 > 100 µM | A549 > 100 µM | ACHN > 100 µM | CCRF-CEM 32.8 µM | COLO 205 > 100 µM | DLD-1 > 100 µM | DMS-114 46.3 µM | DMS-273 > 100 µM | EKVX > 100 µM | HCC 2998 > 100 µM | HCT-116 31.2 µM | HL-60 28.1 µM | HOP-18 14.9 µM | HOP-62 > 100 µM | HOP-92 48.8 µM | HT-29 > 100 µM | IGROV-1 80.7 µM | K562 75.5 µM | KM-20L2 > 100 µM | KM12 40.5 µM | LOX IMVI 49.7 µM | LXFL 529 46.7 µM | M14 > 100 µM | M19-MEL 45.8 µM | MOLT-4 31 µM | Malme-3M > 100 µM | NCI-H226 22.5 µM | NCI-H23 47.1 µM | NCI-H460 > 100 µM | NCI-H522 31.3 µM | OVCAR-4 > 100 µM | OVCAR-5 > 100 µM | OVCAR-8 > 100 µM | RPMI-8226 24.2 µM | RXF 393 > 100 µM | SF-268 > 100 µM | SF-295 85.5 µM | SF-539 36.1 µM | SK-MEL-28 > 100 µM | SK-MEL-2 46.3 µM | SK-MEL-5 > 100 µM | SK-OV-3 > 100 µM | SNB-19 42.1 µM | SNB-75 45.5 µM | SW-620 84.3 µM | TK-10 > 100 µM | U-251 > 100 µM | UACC-257 81.8 µM | UACC-62 26.1 µM | UO-31 > 100 µM | XF498 > 100 µM
